Source: BindingDB's records for doi:10.1021/jm801395v (Universita Di Siena, 2009)

Experiments:
Assay in all cases: Reverse Transcriptase Assay
[1] = target: T1, Gag-Pol polyprotein [588-1027,Y769I]/[588-1147,Y769I] (Human immunodeficiency virus 1, UniProt P04585, Y769I); conditions: pH 7.5; 37 °C
T1 construct: 588-1027; 588-1147
Experimental: (§1) The inhibition of the RNA-dependent DNA polymerase activity of the HIV-1 reverse transcriptase enzyme was measured using a primer extension assay. The substrate-incorporated radioactivity was quantitated by scintillation counting.

[2] = target: T2, Gag-Pol polyprotein [588-1027,Y776L]/[588-1147,Y776L] (Human immunodeficiency virus 1, UniProt P04585, Y776L)
T2 construct: 588-1027; 588-1147
Experimental: as §1

[3] = target: T3, Gag-Pol polyprotein [588-1027] (Human immunodeficiency virus type 1 group M subtype B (isolate HXB2), UniProt P04585); conditions: pH 7.5; 37 °C
T3 construct: 588-1027
Experimental: as §1

`CCC1(c2ccc(COc3cccc(Cl)c3)cc2)Oc2cccnc2-n2cccc2C1=O` (stereo not given) [8-[4-(3-chlorophenoxymethyl)phenyl]-8-ethyl-9-oxa-2,14-diazatricyclo[8.4.0.0^{2,6}]tetradeca-1(14),3,5,10,12-pentaen-7-one] was tested, and the Ki [1] was < 10 µM.

`CCC1(c2ccc(COc3ccccc3)cc2)Oc2cccnc2-n2cccc2C1=O` (stereo not given) [8-ethyl-8-[4-(phenoxymethyl)phenyl]-9-oxa-2,14-diazatricyclo[8.4.0.0^{2,6}]tetradeca-1(14),3,5,10,12-pentaen-7-one] was tested, and the Ki [1] was < 10 µM and the Ki [2] was < 10 µM.

For `CCC1(c2ccc(COc3cccc(Cl)c3)cc2)Oc2ccccc2-n2cccc2C1=O` (stereo not given) [8-[4-(3-chlorophenoxymethyl)phenyl]-8-ethyl-9-oxa-2-azatricyclo[8.4.0.0^{2,6}]tetradeca-1(14),3,5,10,12-pentaen-7-one], the Ki [1] was < 10 µM and the Ki [3] was 0.1 µM.
